Five compounds from patent US12521393B2, “Cytotoxicity targeting chimeras for CCR2-expressing cells” (GLAXOSMITHKLINE INTELLECTUAL PROPERTY DEVELOPMENT LIMITED, priority 2021, dated 2026) can be followed below.

The assay concerns endogenous target monocytes in human PBMC. Description: PBMC ex vivo monocyte depletion flow cytometry assay (Example 200). The class given is cell-based. Particulars: with anti-cotinine antibody (SEQ ID NO: 11/12), 18-24 hours, EC50 in molar, read-out: Ex Vivo Depletion Assay pEC50 (converted). As to the method:
A human PBMC (peripheral blood mononuclear cells) monocyte depletion flow cytometry assay was developed to screen compounds in a 384-well plate format. This assay incorporated endogenous natural killer cells to deplete endogenous target monocytes.
To screen compounds in the human PBMC monocyte depletion flow cytometry assay, 11-point dose-response curves were made from 1 mM stocks in neat DMSO by serially diluting an ARM compound of Formula (I) four-fold into a 384-well plate row-wise. These serially diluted compounds were then stamped into a flat bottom polypropylene 384-well plate (Greiner Bio-One) at 100 nL/well. Fifty microliters of 30 μg/mL anti-cotinine antibody having a heavy chain sequence of SEQ ID NO: 11 and a light chain sequence of SEQ ID NO: 12 (rabbit variable region with human IgG1 Fc domain containing a DE mutation (S239D/1332E)) that had been diluted in assay medium (RPMI 1640 (Gibco) containing 10% fetal bovine serum (Gibco), 1% Glutamax (Gibco) and 1% sodium pyruvate (Corning) was added to the wells of the plate. The plate was centrifuged for 1 min at 500 rpm (revolutions per minute) and then shaken for 5 min at room temperature. The plate was incubated for 15 minutes at 37° C./5% CO2.
Frozen PBMC cells (HemaCare BioResearch) were thawed and centrifuged at 1,200 rpm for 4 minutes. The cells were diluted to a cell density of 2×10^6 cells/mL in assay medium. Fifty microliters of the diluted cells were added to the wells of the plate. The plate was centrifuged for 1 min at 500 rpm and incubated for 18-24 hours at 37° C./5% CO2.
After 18-24 hours incubation, 2 μL of 6.25 μg human FC block (BD Pharmingen) that was diluted in assay medium was added to the wells of the plate. The plate was centrifuged for 1 minute at 500 rpm and then incubated at room temperature for 15 minutes. Five microliters of 750 nM Helix NP NIR (Biolegend) that had been diluted in assay medium was added to the wells of the plate. Nine microliters of antibody cocktail containing 1/5 diluted fluorescein isothiocyanate (FITC) labeled anti-CD45 antibody (Beckman Coulter), PC7 labeled anti-CD14 antibody (Beckman Coulter) and phyocoerythrin (PE) anti-CD4 antibody (Beckman Coulter) was then added to the wells of the plate. The plate was centrifuged for 1 min at 500 rpm and incubated for 30 minutes at 4-8° C. Samples from the plate were run on BD FACS Canto II flow cytometer and data was analyzed using FlowJo software.
ARMs compounds of Formula (I) of the invention were tested for the ability to deplete monocytes in the above assay in one or more experimental runs and the results are shown in Table 3 below. Potency of the compounds of the invention is reported as a pEC50 value. The pEC50 value is the negative log of the EC50 value, wherein the EC50 value is the half maximal effective concentration measured in molar (M). For compounds tested in more than one experimental run, the pEC50 value is reported as an average or as the individual values measured
(In flow cytometry, cells or beads pass a laser one at a time.)
Consider `CC(C)N(C)[C@@H]1CC[C@H](N2CC[C@H](Nc3ncnc4ccc(C(F)(F)F)cc34)C2=O)[C@H](NC(=O)C2CCC3(CC2)CCN(CCOCCOCCNC(=O)[C@H]2CC(=O)N(C)[C@@H]2c2cccnc2)CC3)C1` [Example 93, N-((1R,2S,5R)-5-(Isopropyl(methyl)amino)-2-((S)-2-oxo-3-((6-(trifluoromethyl)quinazolin-4-yl)amino)pyrrolidin-1-yl)cyclohexyl)-3-(2-(2-(2-((2S,3S)-1-methyl-5-oxo-2-(pyridin-3-yl)pyrrolidine-3-carboxamido)ethoxy)ethoxy)ethyl)-3-azaspiro [5.5]undecane-9-carboxamide], for which the EC50 is 126 nM.

For `CC(C)N(C)[C@@H]1CC[C@H](N2CC[C@H](Nc3ncnc4ccc(C(F)(F)F)cc34)C2=O)[C@H](NC(=O)[C@H]2CC[C@@H](NC(=O)C3CCC4(CC3)CCN(C(=O)[C@H]3CC(=O)N(C)[C@@H]3c3cccnc3)CC4)CC2)C1` [Example 95, N-((1S,4R)-4-(((1R,2S,5R)-5-(Isopropyl(methyl)amino)-2-((S)-2-oxo-3-((6-(trifluoromethyl)quinazolin-4-yl)amino)pyrrolidin-1-yl)cyclohexyl)carbamoyl)cyclohexyl)-3-((2S,3S)-1-methyl-5-oxo-2-(pyridin-3-yl)pyrrolidine-3-carbonyl)-3-azaspiro[5.5]undecane-9-carboxamide], the EC50 is 631 nM. As to `CC(C)N(C)[C@@H]1CC[C@H](N2CC[C@H](Nc3ncnc4ccc(C(F)(F)F)cc34)C2=O)[C@H](NC(=O)[C@H]2CC[C@H](N3CCN(C(=O)CCOCCOCCNC(=O)[C@H]4CC(=O)N(C)[C@@H]4c4cccnc4)CC3)CC2)C1` [Example 96, (2S,3S)-N-(2-(2-(3-(4-((1R,4r)-4-(((1R,2S,5R)-5-(Isopropyl(methyl)amino)-2-((S)-2-oxo-3-((6-(trifluoromethyl)quinazolin-4-yl)amino)pyrrolidin-1-yl)cyclohexyl)carbamoyl)cyclohexyl)piperazin-1-yl)-3-oxopropoxy)ethoxy)ethyl)-1-methyl-5-oxo-2-(pyridin-3-yl)pyrrolidine-3-carboxamide], the EC50 is 1 nM. For `CC(C)N(C)[C@@H]1CC[C@H](N2CC[C@H](Nc3ncnc4ccc(C(F)(F)F)cc34)C2=O)[C@H](NC(=O)[C@H]2CC[C@H](N3CCN(C4CC(CCNC(=O)[C@H]5CC(=O)N(C)[C@@H]5c5cccnc5)C4)CC3)CC2)C1` (stereo partly drawn) [Example 97, (2S,3S)-N-(2-(3-(4-((1R,4S)-4-(((1R,2S,5R)-5-(Isopropyl(methyl)amino)-2-((S)-2-oxo-3-((6-(trifluoromethyl)quinazolin-4-yl)amino)pyrrolidin-1-yl)cyclohexyl)carbamoyl)cyclohexyl)piperazin-1-yl)cyclobutyl)ethyl)-1-methyl-5-oxo-2-(pyridin-3-yl)pyrrolidine-3-carboxamide] the value was 0.0631 nM; for `CC(C)N(C)[C@@H]1CC[C@H](N2CC[C@H](Nc3ncnc4ccc(C(F)(F)F)cc34)C2=O)[C@H](NC(=O)[C@H]2CC[C@@H](NC(=O)CCOCCNC(=O)CCOCCCNC(=O)[C@H]3CC(=O)N(C)[C@@H]3c3cccnc3)CC2)C1` [Example 101, (2S,3S)-N-(3-(3-((2-(3-(((1S,4s)-4-(((1R,2S,5R)-5-(Isopropyl(methyl)amino)-2-((S)-2-oxo-3-((6-(trifluoromethyl)quinazolin-4-yl)amino)pyrrolidin-1-yl)cyclohexyl)carbamoyl)cyclohexyl)amino)-3-oxopropoxy)ethyl)amino)-3-oxopropoxy)propyl)-1-methyl-5-oxo-2-(pyridin-3-yl)pyrrolidine-3-carboxamide], 0.631 nM.
